Reference: US8309685B2 (Celgene Avilomics Research, Inc., priority 2007, dated 2012)
Where two headings read alike, the source gives them in different places.

Columns and labels:
[1] = biological target: T1, wild type HCV NS3/4A 1b protease enzyme (Hepatitis C virus genotype 1b, UniProt P26663); assay: biochemical; type: biochemical
T1 construct: 10× stocks of NS3/4A protease enzyme from Bioenza (Mountain View, Calif.); purchased Bioenza (Mountain View, Calif.)
Protocol: (§1) HCV Protease FRET Assay for Wild Type and Mutated NS3/4A 1b Enzymes (IC50)
(§2) Protease reactions were started with the addition of 45 μL of the FRET substrate and monitored for 120 minutes at λex487/λem514 through Quad^4 monochromoters in a Synergy^4 plate reader from BioTek (Winooski, Vt.). At the conclusion of each assay, progress curves from each well were examined for linear reaction kinetics and fit statistics (R^2, absolute sum of squares).
(§3) The compound numbers correspond to the compound numbers in Table 3.

[2] = biological target: T2, A156T mutant of the HCV NS3/4A 1b protease enzyme (Hepatitis C virus genotype 1b, UniProt P26663, A1182T); assay: HCV Protease FRET Assay (IC50), A156T mutant; type: biochemical
T2 construct: 10× stocks of NS3/4A protease enzyme from Bioenza (Mountain View, Calif.); purchased Bioenza (Mountain View, Calif.)
Protocol: as §1
The protocol is a modified FRET-based assay (v—02) from In Vitro Resistance Studies of HCV Serine Protease Inhibitors, 2004, JBC, vol. 279, No. 17, pp 17508-17514.
10× stocks of NS3/4A protease enzyme from Bioenza (Mountain View, Calif.) and 1.13× 5-FAM/QXL™ 520 FRET peptide substrate from Anaspec (San Jose, Calif.) were prepared in 50 mM HEPES, pH 7.8, 100 mM NaCl, 5 mM DTT and 20% glycerol. 5 μL of each enzyme were pre-incubated in a Corning (#3573) 384-well, black, non-treated microtiter plate (Corning, N.Y.) for 30 min at 25° C. with a 0.5 μL volume of 50% DMSO and serially diluted compounds prepared in 50% DMSO. Protease reactions were started with the addition of 45 μL of the FRET substrate and monitored for 120 minutes at λex487/λem514 through Quad^4 monochromoters in a Synergy^4 plate reader from BioTek (Winooski, Vt.). At the conclusion of each assay, progress curves from each well were examined for linear reaction kinetics and fit statistics (R^2, absolute sum of squares). Initial velocity (0 minutes to 30+ minutes) from each reaction was determined from the slope of a plot of relative fluorescence units vs time (minutes) and then plotted against inhibitor concentration to estimate IC50 from log[Inhibitor] vs Response, Variable Slope model in GraphPad Prism from GraphPad Software (San Diego, Calif.).
The compound numbers correspond to the compound numbers in Table 3. […] ;

[3] = tested on: cell line ET (luc-ubi-neo/ET), human Huh7 hepatoma cell line; assay: Method A: cytotoxicity in ET replicon cells (CytoTox-1); type: cell-based; conditions: concentration decreasing cell viability by 50%, 72 hr
Protocol: The compounds were assayed to evaluate the antiviral activity and cytotoxicity of compounds in vitro using HCV RNA replicons. This assay used the cell line ET (luc-ubi-neo/ET), which is a human Huh7 hepatoma cell line that contains an HCV RNA replicon with a stable luciferase (Luc) reporter and three cell culture-adaptive mutations. […]
The ET cell line was grown in Dulbecco's modified essential media (DMEM), 10% fetal bovine serum (FBS), 1% penicillin-streptomycin (pen-strep), 1% glutamine, 250 μg/ml G418 in a 5% CO2 incubator at 37° C. All cell culture reagents were obtained from Mediatech (Manassas, Va.). Cells were trypsinized (1% trypsin:EDTA) and plated out at 5×10^3 cells/well in white 96-well assay plates (Costar) dedicated to cell number (cytotoxicity) or antiviral activity assessments. Drugs were added at six 3-fold concentrations each and the assay was run in DMEM, 5% FBS, 1% pen-strep, 1% glutamine. Human interferon alpha-2b (PBL Biolabs, New Brunswick, N.J.) was included in each run as a positive control compound. Cells were processed 72 hr post drug addition when the cells are still subconfluent. Antiviral activity was measured by analyzing replicon-derived luciferase activity using the Steady-Glo Luciferase Assay System (Promega, Madison, Wis.) according to manufacturer's instruction. The number of cells in each well was determined by CytoTox-1 reagent (Promega). […].

[4] = tested on: HCV RNA replicon in cell line ET (luc-ubi-neo/ET), human Huh7 hepatoma; assay: Method A: HCV RNA replicon antiviral assay (luciferase, ET cell line); type: cell-based, Hepatitis C virus; conditions: Replicon, assay of Example 22, 72 hr, read-out: Inhibition, Replicon
In short: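 Six 3-fold dilutions of each drug were tested on subconfluent luc-ubi-neo/ET Huh7 replicon cells (5×10^3/well) for 72 hr at 37 °C. EC50 and EC90 came from luciferase read-out, IC50 from CytoTox-1 cell number, and […]; interferon alpha-2b was run each time as control.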

[5] = biological target: T3, D168A mutant of the HCV NS3/4A 1b protease enzyme (Hepatitis C virus genotype 1b, UniProt P26663, D1194A); assay: HCV Protease FRET Assay (IC50), D168A mutant; type: biochemical
T3 construct: 10× stocks of NS3/4A protease enzyme from Bioenza (Mountain View, Calif.); purchased Bioenza (Mountain View, Calif.)
Protocol: as §1, §2, §3

[6] = read-out: Inhibition, WT; WT enzyme, FRET assay
[7] = read-out: Inhibition, HCV A156T; A156T enzyme, FRET assay
[8] = read-out: Inhibition, HCV D168A; D168A enzyme, FRET assay

SMILES	IC50 [1, 6] [nM]	IC50 [2, 7] [nM]	Inhibition, Cytotoxicity [3]	IC50 ([4]; Hepatitis C virus, Huh-7) [nM]	IC50 [5, 8] [nM]	IC50 ([1]; WT enzyme, FRET assay; read-out: Inhibition, WT) [nM]	IC50 ([2]; A156T enzyme, FRET assay; read-out: Inhibition, HCV A156T) [nM]	IC50 [4] [nM]	IC50 ([5]; D168A enzyme, FRET assay; read-out: Inhibition, HCV D168A) [nM]
C=C[C@@H]1C[C@]1(NC(=O)[C@@H]1C[C@@H](Oc2cc(-c3ccccc3)nc3cc(OC)ccc23)CN1C(=O)[C@H](CN(C)C(=O)CCl)NC(=O)OC(C)(C)C)C(=O)NS(=O)(=O)c1ccccc1 [Compound I-29, tert-butyl-(S)-3-(2-chloro-N-methylacetamido)-1-((2S,4R)-4-(7-methoxy-2-phenylquinolin-4-yloxy)-2-((1R,2S)-1-(phenylsulfonylcarbamoyl)-2-vinylcyclopropylcarbamoyl)pyrrolidin-1-yl)-1-oxopropan-2-ylcarbamate]	< 10	< 10	C (IC50>100 nM and ≦1000 nM)	10 to 100	< 10				
C=C[C@@H]1C[C@]1(NC(=O)[C@@H]1C[C@@H](Oc2cc(-c3ccccc3)nc3cc(OC)ccc23)CN1C(=O)[C@H](CCNC(=O)C(C)Br)NC(=O)OC(C)(C)C)C(=O)NS(=O)(=O)c1ccccc1 (stereo partly drawn) [Compound I-20]	< 10	100 to 1000	D (IC50>1000 nM and <10,000 nM)	100 to 1000	100 to 1000				
C=C[C@@H]1C[C@]1(NC(=O)[C@@H]1C[C@@H](Oc2cc(-c3ccccc3)nc3cc(OC)ccc23)CN1C(=O)[C@H](Cn1sc2ccccc2c1=O)NC(=O)OC(C)(C)C)C(=O)NS(=O)(=O)c1ccccc1 [Compound I-10, N-[(1,1-dimethylethoxy)carbonyl]-3-(benzoisothiazolin-3-one-2-yl)-L-alanyl-(4R)-4-[(7-methoxy-2-phenyl-4-quinolinyl)oxy]-L-prolyl-1-amino-2-ethenyl-N-(phenylsulfonyl)-(1R,2S)-cyclopropanecarboxamide]	< 10	10 to 100	D (IC50>1000 nM and <10,000 nM)	100 to 1000	10 to 100				
C=C[C@@H]1C[C@]1(NC(=O)[C@@H]1C[C@@H](Oc2cc(-c3ccccc3)nc3cc(OC)ccc23)CN1C(=O)[C@H](CNC(=O)C(Cl)c1ccccc1)NC(=O)OC(C)(C)C)C(=O)NS(=O)(=O)c1ccccc1 (stereo partly drawn) [Compound I-23, tert-butyl(S)-3-(2-chloro-2-phenylacetamido)-1-((2S,4R)-4-(7-methoxy-2-phenylquinolin-4-yloxy)-2-((1R,2S)-1-(phenylsulfonylcarbamoyl)-2-vinylcyclopropylcarbamoyl)pyrrolidin-1-yl)-1-oxopropan-2-ylcarbamate]	< 10	1000 to 10000	D (IC50>1000 nM and <10,000 nM)	100 to 1000	100 to 1000				
C=CC(=O)NCC[C@H](NC(=O)OC(C)(C)C)C(=O)N1C[C@H](Oc2cc(-c3ccccc3)nc3cc(OC)ccc23)C[C@H]1C(=O)N[C@]1(C(=O)NS(=O)(=O)c2ccccc2)C[C@H]1C=C [Compound I-8, (2S)-2-[[(1,1-dimethylethoxy)carbonyl]amino]-4-(2-propenoyl)amino-butanoyl-(4R)-4-[(7-methoxy-2-phenyl-4-quinolinyl)oxy]-L-prolyl-1-amino-2-ethenyl-N-(phenylsulfonyl)-(1R,2S)-cyclopropanecarboxamide]	< 10	10 to 100	D (IC50>1000 nM and <10,000 nM)	100 to 1000	10 to 100				
C=C[C@@H]1C[C@]1(NC(=O)[C@@H]1C[C@@H](Oc2cc(-c3ccccc3)nc3cc(OC)ccc23)CN1C(=O)[C@H](CNC(=O)CC)NC(=O)OC(C)(C)C)C(=O)NS(=O)(=O)c1ccccc1 [I^R-3, N-[(1,1-dimethylethoxy)carbonyl]-3-[(propionyl)amino]-L-alanyl-(4R)-4-[(7-methoxy-2-phenyl-4-quinolinyl)oxy]-L-prolyl-1-amino-2-ethenyl-N-(phenylsulfonyl)-(1R,2S)-cyclopropanecarboxamide]			E (IC50≧10,000 nM)			< 10	10 to 100	1000 to 10000	100 to 1000
